# Reference: patent publication US20190062697A1, “Cell Differentiation Marker and its Uses” (Centre National De La Recherche Scientifique (CNRS), priority 2013, published 2019)
# How the values were obtained:
# [1] = system: ES cells; assay: FACS cell cycle analysis of asynchronously growing ES cells treated with roscovitine; format: cell-based, mouse; conditions: increasing concentration of roscovitine
# Description: FIG. 5C is FACS analysis of asynchronously growing ES cells treated with increasing concentration of Roscovitine (in μM; Z-axis). Roscovitine is a potent and selective inhibitor of cyclin-dependent kinases, […]. X-axis represents DNA content (expressed in propidium iodide fluorescence) and Y-axis represents the number of cells.
# Single-cell suspensions were prepared by trypsinisation and washed once in PBS. Cells were fixed in ice-cold 70% ethanol (−20° C.) and stored at −20° C. overnight. Following RNAse A treatment, total DNA was stained with propidium iodide (25 μg/ml). For BrdU uptake analysis, ES cells and NIH-3t3 cells were grown in the presence of 10 μM BrdU for respectively 10 and 30 minutes. The BrdU content was determined by reaction with a fluorescein isothiocyanate (FITC)-conjugated anti-BrdU antibody (BD Biosciences). Cells were analyzed with a FACScalibur flow cytometer using CellQuestPro software.
# [2] = system: ES cells; assay: Clonogenic assay of ES cells with alkaline phosphatase (AP) staining; format: cell-based, mouse; conditions: prolonged (7 days) RNAi knockdown, in the presence of LIF
# Description: FIG. 12M is a histogram showing a clonogenic assay of ES cells upon prolonged control (1), Dub3 (2) or Cdc25a (3) targeting RNAi sequence. Cells were plated at clonal density in LIF-containing serum and stained for AP after 7 days. Columns show the percentage of alkaline phosphatase (AP) positive (dark grey) or negative (light grey) colonies. At least 150 colonies were scored.
# [3] = system: CDK2^Y15P; assay: Western blot of inhibitory CDK2 Tyr15 phosphorylation upon DNA damage in G1; format: cell-based, mouse; conditions: 24 hours knockdown, UV light in G1
# Excerpt: FIG. 4E is a western blot showing the downregulation of Cdc25A expression by RNAi resulting in increased inhibitory CDK2Tyr15 phosphorylation upon DNA damage in G1. Control (a.) and Cdc25A (b.) RNAi-transfected cells were released from nocodazole and exposed (+) to UV-light in G1. Samples were collected at the indicated times and analyzed by western blotting with the indicated antibodies: Cdc25A (#1), Cdk2^Y15P (#2), Cyclin B1 (#3), Chk1^S345P (#4), Chk1 (#5) and β-actin (#6; as control).
# Western blot signals of FIG. 4E were quantified by densitometry scanning and expressed as relative optical density (ROD) compared to Chk1 signal as loading control. Black bars represent cells treated with Cdc25A RNAi (a.) and white bars represent cells treated with control RNAi (b.).
# Cells were rinsed once in PBS and then incubated with ice cold lysis buffer (50 mM Tris-HCl pH 7.4, 100 mM NaCl, 50 mM NaF, 5 mM EDTA, 40 mM β-glycero-phosphate, 1% Triton X-100 and protease inhibitors) for 30 min on ice before scraping. Whole cell extracts were clarified by centrifugation at 12000 rcf for 10 min at 4° C. Protein concentration of the clarified lysates was estimated using BCA method (Pierce). Equal amount of protein was used for western blot analysis. All antibodies were incubated overnight at 4° C. in phosphate-buffered saline (PBS) containing 1% BSA and 0.1% Tween (Sigma). […]
# [4] = system: ES cells; assay: BrdU pulse-labelling / FACS of synchronized ES cells UV-irradiated in G1 (S-phase entry); format: cell-based, mouse; conditions: 24 hours knockdown, UV light in G1, collected 2 hours after UV
# Description: FIG. 4F is a histogram showing Cdc25A downregulation in G1 delay upon DNA damage. Control (a.) and Cdc25A (b.) RNAi-transfected cells were released from nocodazole and exposed to UV light in G1 (t=2) and collected 2 hours (t=4) after UV-(+) or mock-irradiation (−). Prior to collection cells were pulse-labelled with BrdU. Fraction (expressed as %) of diploid BrdU negative cells is plotted (data are represented as mean±SD). Statistical differences is indicated with a single asterisk (*) for P<0.05. Y-axis represents the percentage of cells in G1.
# ES cells were arrested in prometaphase by nocodazole (Sigma) for 4-8 hours. After mitotic-shake off cells were washed 3 times in ice-cold PBS and dissolved in full ES growth medium. Cells were incubated in a humidified atmosphere of 5% CO2 at 37° C. for 45 minutes and placed at 30° C. for 1 hour to reduce S phase entry. Cells were mock- or UV-irradiated (6 J/m2) and incubated at 37° C. prior collection. To synchronise NIH-3t3 cells in G0 cells were grown to confluence and incubated for 2-3 days. Next, cells were washed, resuspended and split at 30% confluency. […]
# Single-cell suspensions were prepared by trypsinisation and washed once in PBS. […] The BrdU content was determined by reaction with a fluorescein isothiocyanate (FITC)-conjugated anti-BrdU antibody (BD Biosciences). Cells were analyzed with a FACScalibur flow cytometer using CellQuestPro software.
# [5] = system: Cdc25A; assay: Western blot analysis of Cdc25A protein levels in ES cells; format: cell-based, mouse
# Description: Cells were UV-irradiated and incubated with cycloheximide (Cx) in absence or presence of Chk1 inhibitor SB218078, collected at the indicated times (min) and analyzed by western blotting. Cdc25A expression (#1) and β-actin (#2; as control) are shown.
# FIG. 6J is a western blot analysis of Cdc25A protein expression in Luciferase (a.), β-TrCP (b.) and Cdh1 (c.) RNAi-transfected cells. Expression of Cdc25A (#1) and β-actin (#2) is shown.
# Expression of CDC25A (#1), Cdc25C (#2) and β-actin (#3, as control) is represented.
# FIG. 9B is a western blot analysis of Cdc25A protein levels in ES cells treated with increasing concentrations (in μM) of the DY131 agonist for 16 hours. Cdc25A (#1) and β-actin (#2, as control) protein expression is represented.
# Cells were rinsed once in PBS and then incubated with ice cold lysis buffer (50 mM Tris-HCl pH 7.4, 100 mM NaCl, 50 mM NaF, 5 mM EDTA, 40 mM β-glycero-phosphate, 1% Triton X-100 and protease inhibitors) for 30 min on ice before scraping. Whole cell extracts were clarified by centrifugation at 12000 rcf for 10 min at 4° C. Protein concentration of the clarified lysates was estimated using BCA method (Pierce). Equal amount of protein was used for western blot analysis. All antibodies were incubated overnight at 4° C. in phosphate-buffered saline (PBS) containing 1% BSA and 0.1% Tween (Sigma). Antibodies used from Cell Signaling: Chk1S345P (2341), p53S15P (9284), γH2AX (2577), CDK2Y15P (9111), Myc-Tag (2276); Active caspase 3 (9961); Abcam: DNA polα (ab31777), H3 (ab1791), CDK2 (ab6538), PSTAIR (ab10345), GFP (ab290), MCM2 (ab4461); Suds3 (ab3740) Santa Cruz: Cdc45 (sc-20685), Cdc25A (sc-7389), Chk1 (sc-8408), Cyclin B1 (sc-245), Cdc25C (sc-327), Cdc25B (sc-65504), p21 (sc-6246), RhoA (sc-418); anti-goat IgG-HRP (sc-2020) Sigma: (PC10), β-actin (A1978), Cyclin A (C7410), Anti-Flag M2 (F1804), Oct4 (Chemicon, AB3209), and Millipore, Nestin (Ab353), H3S10P (Millipore 09-797). Wee1 (kindly provided by T. Lorca, CRBM Montpellier).
# [6] = system: Cdc25A mRNA; assay: qPCR quantification of Cdc25A mRNA in ES cells; format: cell-based, mouse
# Description: FIG. 6I is a histogram showing qPCR quantification of Cdc25A normalised to multiple reference genes expressed as percentage of control. ES cells were transfected with control (Luc), β-TrCP (1), Cdh1 (2) or Dub3 (3) RNAi sequences and collected 48 hours after transfection. Bars represent the mean±SD of triplicate observations.
# FIG. 7C is a histogram showing the qPCR quantification of Cdc25A mRNA normalised to multiple reference genes. ES cells were transfected with control (1), Dub3 (2) or Cdc25A (3) RNAi sequences.
# (§1) FIG. 9A is a graph showing qPCR quantification of Cdc25A (curves with black squares) and Dub3 (curves with triangles) mRNA in ES cells treated with increasing concentration of the selective Esrrb and Esrrg agonist DY131 (indicated doses in μM) for 16 hours. Bars represent the fold induction±SD of triplicate observations.
# (§2) Briefly, ES cells were maintained in Glasgow MEM BHK-21 (GMEM) supplemented with 10% fetal bovine serum, non-essential amino acids, L-glutamine, sodium pyruvate, β-mercapthethanol. NIH-3t3 cells were maintained in Dulbecco's modified eagle's medium (DMEM) supplemented with 10% fetal bovine serum, 2 mM glutamine and antibiotics. […]
# (§3) Total RNA was isolated with TRIzol reagent (Invitrogen). […] Quantitative PCRs were performed using Lightcycler SYBR Green I Master mix (Roche) on Lightcycler apparatus (Roche). […]
# [7] = system: deubiquitylating enzymes (DUBs); conditions: cited from earlier work
# [8] = system: Dub3 mRNA; assay: qPCR quantification of Dub3 mRNA in ES cells; format: cell-based, mouse; conditions: increasing dose of DY131, 16 hours
# Description: as §1
# FIG. 9C is a histogram showing qPCR quantification of Esrrb (1) and Dub3 (2) mRNA normalised to multiple reference genes expressed as percentage of control in presence of DY131. ES cells were transfected with control (Crtl) RNAi (white bars) or Esrrb specific RNAi sequence (black bars). Data are expressed as mean±SD (error bars) of multiple observations.
# as §2, with “antibiotics. The viruses-containing conditioned medium was incubated on exponentially growing NIH-3t3 cells for 24 hours in the presence of polybrene ([…]).” for “antibiotics.”
# as §3
# [9] = RNAi-mediated knockdown in ES cells
# [10] = increasing dose of DY131, 16 hours, ES cells
compound,measurement,setting,value
CC[C@H](CO)Nc1nc(NCc2ccccc2)c2ncn(C(C)C)c2n1 [roscovitine],G1 cells,[1],dose-dependent increase of G1 cells
same,fraction of S phase cells,[1],reduced the fraction of S phase cells
"5′-GAAAUUUCCCUGACGAGAA-3′ (listed as RNA, chemistry not given here) [Cdc25A RNAi]",alkaline phosphatase (AP)-negative colonies,[2],A very similar result was also observed
same,CDK2^Y15P levels,[3],increased CDK2^Y15P levels
same,BrdU-negative cells with 2N DNA content,[4],"significant, UV-dependent, increase of BrdU-negative cells with 2N DNA content"
O=C1NC(=O)c2c1c1c3ccccc3n3c1c1c2c2ccccc2n1C1CCC3O1 [SB218078],Cdc25A destruction upon DNA damage,"[5]; UV-irradiated ES cells with cycloheximide, absence or presence of Chk1 inhibitor",rapid Cdc25A destruction upon DNA damage is Chk1-dependent
"5′-GGCUGUAAGAUGUGUGCUA-3′ (listed as RNA, chemistry not given here) [Dub3 RNAi]",Cdc25A mRNA level,[6]; [9],did not affect Cdc25A mRNA level
same,alkaline phosphatase (AP)-negative colonies,[2],increase of alkaline phosphatase (AP)-negative colonies
same,reduction of Cdc25A protein abundance,[5]; [9],3 fold
N#CSc1cc(SC#N)c(N)nc1N [PR-619],accumulation of polyubiquitylated proteins in cells,[7],induces the accumulation of polyubiquitylated proteins in cells
same,proteasome activity,[7],without directly affecting proteasome activity
CCN(CC)c1ccc(/C=N/NC(=O)c2ccc(O)cc2)cc1 [DY131],Cdc25A transcript level,[6]; [10],without affecting Cdc25A transcript level
same,Dub3 gene expression,[8],boosted Dub3 gene expression
same,Cdc25A protein abundance,[5]; [10],increased Cdc25A protein abundance
